One experiment relates to Treg cell proliferation. Put plainly: Pathway inhibitors on OX40L, JAG1 and IL-2-induced Treg proliferation (flow cytometry). Particulars: CD4+ T-cells from NOD mice pre-treated with inhibitor. It counts as cell-based, mouse. As for the experimental part: FIG. 21. Role of NF-κB and STAT5 signaling pathways in OX40L-JAG1-IL-2 induced Treg proliferation and Foxp3 expression. (A) CD4+ T-cells from NOD mice were pre-treated with pharmacological inhibitors of indicated cell signaling pathways and treated with soluble OX40L-JAG1-IL-2. Effect of these pathway inhibitors on Treg cell proliferation was measured by flow cytometry analysis. (B) RT-qPCR analysis showing effect of inhibitors of NF-κB and STAT5 signaling pathways on Foxp3 mRNA expression (Values represent Mean±SEM, n=3, *p<0.05, **p<0.01, ***p<0.001 Vs control, ^#p<0.05, ^##p<0.01 Vs None-OX40L-JAG1-IL-2). (C) Western blot analysis showing effect of inhibitors of NF-κ B and STAT5 signaling pathways on Foxp3 protein expression. Western blot analysis of the time dependent effect of soluble OX40L-JAG1-IL-2 on (D) Foxp3 expression, (E) NF-κ B p65 phosphorylation and (F) STAT5 phosphorylation in CD4+ T-cells. […]
CD4+ T-cells (1×10^6 cells/ml) were treated with soluble OX40 L, JAG1 and IL-2 as mentioned above. […] Foxp3, pp65 and pSTAT5 signal intensities were normalized to β-actin, total p65 and STAT5 signal intensities and expressed as fold change over respective controls.
A general note: In flow cytometry, cells or beads pass a laser one at a time.

For a further experiment, the system named is Foxp3. Kind of experiment: Pathway inhibitors on OX40L, JAG1 and IL-2-induced Foxp3 expression (RT-qPCR, Western blot). It counts as cell-based, mouse. Particulars: at 24 h. The protocol:
CD4+ T-cells (1×10^6 cells/ml) were treated with soluble OX40 L, JAG1 and IL-2 as mentioned above. In some experiments cells were pre-treated with inhibitors of Notch (GSI-R04929097, Selleckchem), NF-κ B (BAY-11-7082, Sigma-Aldrich) and STAT5 (CAS 285986-31-4, Calbiochem) signaling for 2 h and co-treated with soluble ligands for different time intervals. Cells were washed with PBS, and lysed in Laemmli buffer (Biorad) and resolved in 10% SDS-PAGE gels. Proteins were transferred to PVDF membranes (Biorad), blocked with 5% skimmed milk and incubated with primary anti-mouse Foxp3 (1:1000, ebioscience), anti-mouse phospho p65 (Ser536) and phospho STAT5 (Tyr694) (1:500, Cell Signaling Technology) antibodies. Blots were then washed, incubated with secondary anti-rabbit IgG-HRP and developed using ECL detection kit (Pierce Scientific). […] Foxp3, pp65 and pSTAT5 signal intensities were normalized to β-actin, total p65 and STAT5 signal intensities and expressed as fold change over respective controls.
For some experiments, resting and proliferating Tregs were sorted based on cell trace violet dilution. […] Gene expression values were calculated by comparative Δ Ct method after normalization to GAPDH internal control and expressed as fold change over respective controls. […] Data were analyzed using the R-package software. […]
(In general: Quantitative PCR measures a nucleic acid by following its amplification.)

The test system of another experiment is Notch signaling. Kind of experiment: GSI-treated CD4+ T-cells from NOD mice co-cultured with G-BMDCs, proliferation by flow cytometry. Particulars: indicated concentrations, 5 days with G-BMDCs. It counts as cell-based, mouse. As for the experimental part:
FIG. 13. […] (A) CD4+ T-cells from NOD mice were treated with γ-secretase inhibitor (GSI)-R042929097 at indicated concentrations and then co-cultured with G-BMDCs for 5 days. Extent of proliferation was measured by flow cytometry (n=3). (B) Notch3-OX40−, […], Notch3-OX40+, Notch3+OX40+ subsets of CD4^+CD25^+ Treg cells sorted out and co-cultured with G-BMDCs for 5 days and extent of proliferation was analyzed (n=2).
Bone marrow cells were cultured in complete RPMI medium containing 10% heat-inactivated FBS in the presence of 20 ng/ml GM-CSF for 3 days. On days 4 and 6, fresh medium containing 20 ng/ml GM-CSF was added. Non-adherent CD11c^+ DCs from eight day old cultures were enriched using anti-CD11c coated magnetic beads according to the manufacturer's directions (Miltenyi Biotech, Auburn, Calif.). Specific sub-populations of GM-BMDCs and CD4+CD25+ T-cells were sorted using a MoFlo flow cytometer (Beckman/Coulter, Ranch Cucamonga, Calif.) following staining with appropriate antibodies (OX40L, Jagged-1, CD4, CD25). To obtain GFP+ and GFP− cells, total CD4+ cells were first separated using CD4 microbeads (Miltenyi Biotech) and then the cells were sorted based on GFP expression using a MoFlo flow cytometer (Beckman/Coulter). […]

The next experiment has as its system Foxp3+ Tregs. Kind of experiment: GM-BMDC / CD4+ T-cell co-culture, Treg proliferation by CFSE dilution (FACS). Type of experiment: cell-based, mouse. Particulars: for Treg proliferation: GM-BMDCs alone ~13.2±0.4%. As for the experimental part: Each in vitro experiment was conducted in triplicate with T-cells, SpDCs and GM-BMDCs pooled from 3 mice. GM-BMDCs (5×10^4) and CD11c^+ SpDCs were cultured with CD4^+, CD4^+CD25^− and CD4^+CD25^+ T-cells at a ratio of 1:2 for 5 days. For proliferation assays, T-cell subpopulations were labelled with CFSE at 10 μM according to manufacturer's instruction (Invitrogen, Carlsbad, Calif.) before co-culturing them with DCs. Some cultures were supplemented with IL-2 (10 U/ml) (R&D Systems), antiOX40L (up to 10 μg/ml) antibody, OX40 agonist (OX-86, 5-10 μg/ml), anti-Jagged-1 (10-20 μg/ml) antibody or anti-Notch3 (10-20 μg/ml) antibody. For blocking experiments with anti-OX40L or anti-Jagged-1 antibodies, GM-BMDCs were pre-treated with the indicated antibodies for 30 min at 37° C. and then used in co-culture with naive CD4^+ T-cells. For blocking experiments with anti-Notch3 antibody, CD4+ T-cells isolated from mouse splenocytes were first treated with anti-Notch3 antibody at two different concentrations (10 and 20 μg/ml) or with 20 μg/ml of an anti-Notch 1 antibody, incubated at 37° C. for 30 minutes and then co-cultured with GM-BMDCs/SpDCs for 5 days. Some co-cultures were supplemented with different concentrations of gamma-secretase inhibitors (GSI) S-2188 (5 and 10 μM) or R04929097 (200 nM-5 μM).
Freshly isolated and ex vivo cultured cells were washed with PBS-BSA-EDTA or PBS containing 0.5% BSA. For surface staining, the cells were labelled with one of the following: specified FITC, PE, APC conjugated antibodies for 30 min, anti-CD4-eFluor-780, CD4-FITC (eBioscience), anti-CD25-PE, anti-CTLA4-PE, anti-CD39-PE, anti-Helios-PE, anti-TIGIT-PE or fixed, permeabilized, and stained with anti-, Anti-Ki67-PE, anti-Foxp3-APC and isotype controls antibodies (eBioscience) (1:100) in dark. […] Stained cells were washed three times and analyzed by Cyan flow cytometer (Beckman/Coulter) and data analysis was done using Summit v4.3 software.

A further experiment relates to NOD mice. Particulars: cited from earlier work.

Read-outs that look alike come from different tables or passages of the source.

With `Cc1ccc(S(=O)(=O)/C=C/C#N)cc1` [NF-κB inhibitor], the “OX40L, JAG1 and IL-2-induced Treg proliferation” value in the experiment with Treg cell proliferation is listed as “significantly blocked”. Moreover, the “OX40L, JAG1 and IL-2-induced Foxp3 expression” value with Foxp3 is listed as “significantly down regulated”.

As for `CC(C)(C(=O)NCC(F)(F)C(F)(F)F)C(=O)N[C@@H]1C(=O)Nc2ccccc2-c2ccccc21` [R04929097], the “inhibition of Notch signaling / Treg proliferation” value in the experiment with Notch signaling is “dose-dependent manner”. Further, the Treg proliferation in the experiment on Foxp3+ Tregs (250 nM) is 5.2±0.4%; in the experiment with Foxp3+ Tregs (5 μM) it was 1.7±0.3%. In addition, the “GM-BMDC mediated Treg proliferation” value with Foxp3+ Tregs (different concentrations (FIG. 8)) is reported as “abrogated”.

Turning to `O=C(N/N=C/c1coc2ccccc2c1=O)c1cccnc1` [STAT5 inhibitor], the “OX40L, JAG1 and IL-2-induced Treg proliferation” value with Treg cell proliferation is “significantly blocked”. Moreover, the “OX40L, JAG1 and IL-2-induced Foxp3 expression” value with Foxp3 is “only moderately inhibited”.

B1: OX40L: tumor necrosis factor superfamily member with co-stimulatory function, binds OX40 (protein, UniProt P23510 1-183, looked up)
Tumor necrosis factor ligand …: MERVQPLEENVGNAARPRFERNKLLLVASVIQGLGLLLCFTYICLHFSALQVSHRYPRIQSIKVQFTEYKKEKGFILTSQKEDEIMKVQNNSVIINCDGFYLISLKGYFSQEVNISLHYQKDEEPLFQLKKVRSVNSLMVASLTYKDKVYLNVTTDNTSLDDFHVNGGELILIHQNPGEFCVL
Consider B1, for which the “CD4+CD25+Foxp3+ Treg cells” value in the experiment on NOD mice (6-week old NOD mice) is on record as “increase”. In addition, the results for the development of diabetes result with NOD mice (6-week old NOD mice) and in the experiment on NOD mice (12-week old NOD mice) were “protect” and “accelerated diabetes development”, respectively.

Values taken from patent US10696946B2, “T-REG cell expansion” (The Board of Trustees of the University of Illinois, priority 2013, dated 2020).
